Paper PMC7879681, “Baicalein inhibits heparin-induced Tau aggregation by initializing non-toxic Tau oligomer formation” (Cell Communication and Signaling : CCS, 2021)

Target: T1, full-length Tau (hTau40WT) (Homo sapiens, UniProt P10636)
T1 construct: gene MAPT; recombinant wild type human full-length Tau (hTau40WT)
Experiment: ThS fluorescence inhibition of heparin-induced aggregation of purified Tau; supported by ANS, SDS-PAGE, CD, TEM; dissolves preformed fibrils (DC50 […])
Assay type: biochemical

T1 sequence (P10636 2-441 isoform P10636-8): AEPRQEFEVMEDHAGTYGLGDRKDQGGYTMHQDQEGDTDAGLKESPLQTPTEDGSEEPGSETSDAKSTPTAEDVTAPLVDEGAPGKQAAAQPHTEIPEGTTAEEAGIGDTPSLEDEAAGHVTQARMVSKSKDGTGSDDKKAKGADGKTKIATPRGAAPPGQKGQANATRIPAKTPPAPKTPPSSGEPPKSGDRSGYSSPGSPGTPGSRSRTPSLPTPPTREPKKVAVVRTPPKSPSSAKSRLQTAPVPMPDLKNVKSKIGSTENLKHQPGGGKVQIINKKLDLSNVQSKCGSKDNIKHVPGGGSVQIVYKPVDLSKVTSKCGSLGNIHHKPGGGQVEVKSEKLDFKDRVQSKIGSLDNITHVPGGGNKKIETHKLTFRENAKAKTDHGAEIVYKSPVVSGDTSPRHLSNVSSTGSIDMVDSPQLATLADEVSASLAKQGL

O=c1cc(-c2ccccc2)oc2cc(O)c(O)c(O)c12 [Baicalein] gave an IC50 of 27.7 µM.
